In publication PMC11823594, “Durlobactam in combination with β-lactams to combat Mycobacterium abscessus” (Antimicrobial Agents and Chemotherapy, 2024):
Converted amounts (≈) assume the structure as drawn. Where two headings read alike, the source gives them in different places.

Key:
PBP-lipo [1] = molecular target: T1, PBP-lipo (Mycobacteroides abscessus, UniProt B1MDC3); test: Bocillin-FL binding assay; settings: 2 h incubation, 1:10 molar ratio
T1 construct: made in house; host or cells: Escherichia coli BL21 (DE3)
Procedure: To analyze the binding of PBP-lipo with β-lactams or BLIs, purified PBP-lipo (4 µg) was incubated with β-lactams or BLIs at a 1:10 molar ratio in a buffer containing 10 mM sodium phosphate (pH 7.4) and 150 mM NaCl. The incubation was carried out for 2 h at room temperature. After the initial incubation, 1 µM Bocillin FL was added to the reaction mixture. The incubation was continued for an additional 3–4 h at 37°C. After incubation, the samples were boiled to denature the proteins. The samples were then subjected to SDS-PAGE. The PBP-lipo:Bocillin complexes were visualized by fluorescence analysis at a wavelength of 488 nm using an Azure 300 gel imaging system. The intensity of the PBP-lipo:Bocillin complex bands was analyzed using GelAnalyzer software. The intensity of the band for PBP-lipo alone (without β-lactams) was set to 1 as the highest intensity. The intensity of each band for PBP-lipo incubated with β-lactams was then normalized by dividing by the intensity of the band for PBP-lipo alone.

PBP-lipo [2] = molecular target: T1, PBP-lipo; test: Steady-state kinetics with nitrocefin (Ki,app); format: biochemical; settings: for Ki: nitrocefin at 5 × Km, read-out: Ki,app PBP-lipo (converted); for Ratio of fCss,avg to Ki,app, PBP-lipo: in parentheses in Table 3
Procedure: (§1) Steady-state kinetic studies were conducted using purified LDTs and PBPs (LDT1-5, PBP B, PBP-lipo, and DDC) as previously described ([20]). The assays were performed using a BioTek Synergy2 multimode reader in conjunction with Gen5 analysis software. Increasing concentrations of NCF (Δε482 = 17,400 M^⁻¹ cm^⁻¹) were used, while fixed concentrations of the LDTs and PBPs were monitored for changes in absorbance at 482 nm over a time period of 0 to 10 min. To determine reaction velocities, a 0.25 cm path length was employed. The steady-state kinetic parameters (Vmax, kcat, and Km) were obtained by fitting the data to the Henri-Michaelis-Menten equation using a nonlinear least-squares fit in Origin 8.1 software (OriginLab, Northampton, MA). The reaction rate (v) at a given substrate concentration ([S]) was calculated according to the following equations: […]
To determine the apparent inhibition constants (Ki,app) for β-lactams and BLIs, the following experimental condition was employed: NCF as a substrate at a concentration of 5 × Km, LDT/ PBP enzymes with fixed concentration, and β-lactams and BLIs with various concentrations. Changes in absorbance at 482 nm were measured over a period of 0–30 min for each concentration of β-lactams and BLIs. Data were linearized using a Dixon plot, plotting the inverse changes in absorbance (1/ΔA) against the concentrations of β-lactams and BLIs. The observed Ki,app was determined directly from the Dixon plot, and these values were corrected for substrate concentration and affinity for the LDT using the following equation:
(§2) Ki,app=observed Ki,app/1+[NCF]/Km NCF

[3] = tested on: Mycobacterium abscessus ATCC 19977 strain; test: Morphological changes by flow cytometry and confocal microscopy; format: cell-based; settings: clinically relevant unbound concentrations (fCss,ave), 24 h
Procedure: Flow cytometry was employed to evaluate morphological changes in individual bacterial cells following PBP-lipo inactivation after 24 h of β-lactam treatment. The bacterial cells were stained using the BacLight kit L7012 (Thermo Fisher Scientific, Waltham, MA), containing SYTO 9 and propidium iodide (PI). Analysis was performed using a CytoFLEX flow cytometer (Beckman Coulter, CA), with data processed using CytExpert software.
Bacterial morphological changes resulting from PBP-lipo inactivation were investigated using an ImageXpress Micro Confocal Microscope (Molecular Devices, CA). The staining procedures applied to the samples mirrored those used for flow cytometry. Stained bacterial cells were placed in optically clear flat-bottom 96-well plates, and observations were conducted at 60× magnification. Cell length measurements were obtained through automated image analysis using MetaXpress 6 software.

PBP B = PBP B (Mycobacterium abscessus, UniProt B1MP31); test: Steady-state kinetics with nitrocefin (Ki,app); format: biochemical; settings: for Ratio of fCss,avg to Ki,app, PBP B: in parentheses in Table 3;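 as to Ratio of fCss,avg to Ki,app, PBP B: Parenthesised value is the fCss,avg to Ki,app ratio where above 1 means target likely hit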
Procedure: as §1, with “Increasing concentrations of NCF (Δε482 = 17,400 M^⁻¹ cm^⁻¹) were used, while fixed concentrations of the LDTs and PBPs were monitored for changes in absorbance at 482 nm over a time period of 0 to 10 min.” left out
(§3) Changes in absorbance at 482 nm were measured over a period of 0–30 min for each concentration of β-lactams and BLIs. Data were linearized using a Dixon plot, plotting the inverse changes in absorbance (1/ΔA) against the concentrations of β-lactams and BLIs. The observed Ki,app was determined directly from the Dixon plot, and these values were corrected for substrate concentration and affinity for the LDT using the following equation:
as §2

Mab ATCC 19977 strain = test: MIC testing (CLSI, Middlebrook 7H9 broth); format: cell-based, Mycobacterium abscessus; settings: for MIC: Mycobacteroides abscessus, ATCC19977, Mab ATCC 19977, no BLI added, 30°C, 48 h, read-out: MIC, alone; for MIC, + DUR + SUL (1:1): durlobactam, sulbactam and test β-lactam all at the same concentration; for MIC, + AVI (4 mg/L): fixed avibactam 4 mg/L; for MIC, + DUR + SUL (1 mg/L): fixed durlobactam 1 mg/L + sulbactam 1 mg/L
DDC = DDC (Mycobacteroides abscessus, UniProt B1MDJ1); test: Steady-state kinetics with nitrocefin (Ki,app); format: biochemical; settings: in parentheses in Table 3;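 also: Parenthesised value is the fCss,avg to Ki,app ratio where above 1 means target likely hit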
Procedure: as §1, with “Increasing concentrations of NCF (Δε482 = 17,400 M^⁻¹ cm^⁻¹) were used, while fixed concentrations of the LDTs and PBPs were monitored for changes in absorbance at 482 nm over a time period of 0 to 10 min.” left out
as §3, §2

[4] = nitrocefin at 5 × Km, read-out: Ki,app PBP B (converted)
[5] = read-out: Ki,app PBP B (converted)

Chain of DDC (B1MDJ1 entry or part of it): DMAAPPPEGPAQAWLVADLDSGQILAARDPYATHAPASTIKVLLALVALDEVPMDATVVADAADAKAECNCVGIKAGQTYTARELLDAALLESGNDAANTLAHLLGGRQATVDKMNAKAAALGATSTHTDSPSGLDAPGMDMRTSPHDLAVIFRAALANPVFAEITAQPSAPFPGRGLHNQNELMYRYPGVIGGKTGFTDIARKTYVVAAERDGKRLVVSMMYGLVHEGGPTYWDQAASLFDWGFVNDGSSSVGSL
Chain of PBP B (B1MP31 entry or part of it): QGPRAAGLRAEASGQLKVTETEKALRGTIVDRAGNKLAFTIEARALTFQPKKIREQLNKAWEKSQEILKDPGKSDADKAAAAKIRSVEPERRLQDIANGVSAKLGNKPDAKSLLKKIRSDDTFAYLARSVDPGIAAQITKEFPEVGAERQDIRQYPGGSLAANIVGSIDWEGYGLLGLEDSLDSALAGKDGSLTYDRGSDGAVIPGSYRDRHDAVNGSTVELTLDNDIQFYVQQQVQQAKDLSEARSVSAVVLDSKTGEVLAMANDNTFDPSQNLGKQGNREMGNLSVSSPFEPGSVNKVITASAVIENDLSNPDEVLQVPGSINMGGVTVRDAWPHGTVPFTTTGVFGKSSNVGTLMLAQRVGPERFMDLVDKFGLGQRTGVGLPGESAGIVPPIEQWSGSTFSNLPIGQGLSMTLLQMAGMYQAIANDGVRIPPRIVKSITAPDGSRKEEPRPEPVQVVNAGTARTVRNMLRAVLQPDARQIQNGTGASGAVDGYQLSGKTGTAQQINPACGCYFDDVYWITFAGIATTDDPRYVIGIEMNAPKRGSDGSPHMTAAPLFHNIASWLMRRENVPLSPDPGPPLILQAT
T1 sequence (B1MDC3 entry or part of it): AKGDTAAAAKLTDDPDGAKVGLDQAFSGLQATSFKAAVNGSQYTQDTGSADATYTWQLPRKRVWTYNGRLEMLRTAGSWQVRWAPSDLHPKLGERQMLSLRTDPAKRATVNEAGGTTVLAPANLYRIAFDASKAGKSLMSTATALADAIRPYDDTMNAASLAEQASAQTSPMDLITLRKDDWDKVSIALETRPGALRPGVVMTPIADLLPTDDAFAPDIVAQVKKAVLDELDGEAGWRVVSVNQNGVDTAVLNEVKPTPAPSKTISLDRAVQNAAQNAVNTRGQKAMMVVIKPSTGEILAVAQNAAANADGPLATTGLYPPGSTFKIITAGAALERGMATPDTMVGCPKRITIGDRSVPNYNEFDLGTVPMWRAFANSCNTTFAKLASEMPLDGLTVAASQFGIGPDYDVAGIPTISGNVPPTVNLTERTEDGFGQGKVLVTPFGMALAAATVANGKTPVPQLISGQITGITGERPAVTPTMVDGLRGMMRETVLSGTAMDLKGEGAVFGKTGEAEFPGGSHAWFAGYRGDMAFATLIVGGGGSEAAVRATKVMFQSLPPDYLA

SMILES	Binding to PBP-lipo (Bocillin-FL competition) (PBP-lipo [1])	Ki (PBP-lipo [2]) [µM]	Morphological change of Mab cells [3]	Ki (PBP B) [µM]	MIC (Mab ATCC 19977 strain) [µg/mL]	MIC, + DUR + SUL (1:1) (Mab ATCC 19977 strain) [µg/mL]	MIC, + AVI (4 mg/L) (Mab ATCC 19977 strain) [µg/mL]	MIC, + DUR + SUL (1 mg/L) (Mab ATCC 19977 strain) [µg/mL]	Ratio of fCss,avg to Ki,app, PBP-lipo (PBP-lipo [2])	Ratio of fCss,avg to Ki,app, PBP B (PBP B)	Ki (PBP B; [4]) [µM]	Ratio of fCss,avg to Ki,app, DDC (DDC)	Ki (PBP B; [5]) [µM]
CC1(C)S[C@@H]2[C@H](NC(=O)[C@H](N)c3ccc(O)cc3)C(=O)N2[C@H]1C(=O)O [Amoxicillin, amoxicillin]	demonstrated binding to PBP-lipo	0.274	does not induce any morphological changes	7.39	128 (≈ 350 µM)	1	32	1	–	–	–	–	–
NC(=O)[C@@H]1CC[C@@H]2CN1C(=O)N2OS(=O)(=O)O [Avibactam, avibactam]	demonstrated binding to PBP-lipo	18.9	did not induce noticeable morphological changes	–	> 128	–	–	–	1	0.6	33.9	0.1	–
CO/N=C(\C(=O)N[C@@H]1C(=O)N2C(C(=O)O)=C(COC(N)=O)CS[C@H]12)c1ccco1 [Cefuroxime, cefuroxime]	demonstrated binding to PBP-lipo	51.8	did not induce noticeable morphological changes	–	4 (≈ 9.43 µM)	1	4	2	0.5	3 (4)	–	0.05 (240)	7.07
CC1=C[C@@H]2CN(C(=O)N2OS(=O)(=O)O)[C@@H]1C(N)=O [Durlobactam, durlobactam]	demonstrated binding to PBP-lipo	0.361	filamentous shapes with an elongated cell length	–	–	–	–	–	133	1	57.7	1.6	–
C[C@@H](O)[C@H]1C(=O)N2C(C(=O)O)=C(SCCN=CN)C[C@H]12 [Imipenem, imipenem]	demonstrated binding to PBP-lipo	2	filamentous shapes with an elongated cell length	–	8 (≈ 26.7 µM)	2	4	4	22	0.4 (27)	–	1.3 (9)	1.34
C[C@@H](O)[C@H]1C(=O)N2C(C(=O)O)=C(S[C@H]3CC[S@@+]([O-])C3)S[C@H]12 [Sulopenem, sulopenem]	demonstrated binding to PBP-lipo	0.229	filamentous shapes with an elongated cell length	–	1 (≈ 2.86 µM)	0.25	0.5	1	25	0.7	8.3	0.1	–
C[C@@H](O)[C@H]1C(=O)N2C(C(=O)O)=C(SC3CN(C4=NCCS4)C3)[C@H](C)[C@H]12 [Tebipenem, tebipenem]	–	88.7	–	–	8 (≈ 20.9 µM)	1	2	1	0.05	243	0.0183	0.01	–
